Test results published in patent US20240190880A1 (THE REGENTS OF THE UNIVERSITY OF MICHIGAN, priority 2021, published 2024).

Molecular target: T1, ER (Homo sapiens, UniProt P03372)
T1 construct: host or cells: T47D and MCF7 human breast cancer cells
T1 sequence (P03372 1-595): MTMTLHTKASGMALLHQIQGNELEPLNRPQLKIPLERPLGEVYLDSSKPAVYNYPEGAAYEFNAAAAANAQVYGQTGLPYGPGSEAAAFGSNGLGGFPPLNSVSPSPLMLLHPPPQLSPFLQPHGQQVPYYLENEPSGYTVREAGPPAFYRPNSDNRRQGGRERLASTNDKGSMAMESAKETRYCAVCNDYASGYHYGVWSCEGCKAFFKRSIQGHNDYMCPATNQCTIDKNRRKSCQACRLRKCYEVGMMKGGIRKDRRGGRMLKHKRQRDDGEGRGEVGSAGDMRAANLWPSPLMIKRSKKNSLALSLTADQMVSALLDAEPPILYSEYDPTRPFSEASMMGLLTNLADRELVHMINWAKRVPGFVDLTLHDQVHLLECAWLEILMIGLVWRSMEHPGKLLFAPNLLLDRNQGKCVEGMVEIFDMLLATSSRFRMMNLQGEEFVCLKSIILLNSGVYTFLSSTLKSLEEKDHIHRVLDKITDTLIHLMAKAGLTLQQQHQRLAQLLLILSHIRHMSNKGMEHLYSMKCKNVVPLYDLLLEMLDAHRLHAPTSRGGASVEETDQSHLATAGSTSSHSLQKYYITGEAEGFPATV
Experiment: ER degradation activity, in-cell western blot analysis in T47D cells
Format: cell-based
Settings: 16 hours, Table A does not say which cell line (T47D or MCF7), read-out: Potency (DC50)
Outline: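 Read-out is near-infrared fluorescence from an in-cell western, expressed as ER percentage relative to untreated and DMSO controls taken as 100%. T47D breast cancer cells received compound for 16 h in 0.5% DMSO.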

DC50 | SMILES
< 10 nM | O=C1CCC(N2Cc3cc4c(cc3C2=O)CN(C(=O)CN2CCC3(CC2)CCN(c2ccc([C@@H]5c6ccc(O)cc6CC[C@@H]5c5ccccc5)cc2)CC3)C4)C(=O)N1 (stereo partly drawn) [E 354, 3-(6-(2-(9-(4-((1R,2S)-6-hydroxy-2-phenyl-1,2,3,4-tetrahydronaphthalen-1-yl)phenyl)-3,9-diazaspiro[5.5]undecan-3-yl)acetyl)-1-oxo-3,5,6,7-tetrahydropyrrolo[3,4-f]isoindol-2(1H)-yl)piperidine-2,6-dione]
10 to 100 nM | O=C1CCC(N2Cc3cc4c(cc3C2=O)CN(C(=O)C2CCC(NC3CN(c5ccc([C@@H]6c7ccc(O)cc7CC[C@@H]6c6ccccc6)cc5)C3)CC2)C4)C(=O)N1 (stereo partly drawn) [E 359, 3-(6-(4-((1-(4-((1R,2S)-6-hydroxy-2-phenyl-1,2,3,4-tetrahydronaphthalen-1-yl)phenyl)azetidin-3-yl)amino)cyclohexane-1-carbonyl)-1-oxo-3,5,6,7-tetrahydropyrrolo[3,4-f]isoindol-2(1H)-yl)piperidine-2,6-dione]
> 100 nM | CN(C1CCN(c2ccc([C@@H]3c4ccc(O)cc4CC[C@@H]3c3ccccc3)cc2)CC1)C1CC(C(=O)N2Cc3cc4c(cc3C2)C(=O)N(C2CCC(=O)NC2=O)C4=O)C1 (stereo partly drawn) [E 362, 2-(2,6-dioxopiperidin-3-yl)-6-(3-((1-(4-((1R,2S)-6-hydroxy-2-phenyl-1,2,3,4-tetrahydronaphthalen-1-yl)phenyl)piperidin-4-yl)(methyl)amino)cyclobutane-1-carbonyl)-6,7-dihydropyrrolo[3,4-f]isoindole-1,3(2H,5H)-dione]
< 10 nM | O=C1CCC(N2C(=O)c3cc4c(cc3C2=O)CN(C(=O)[C@H]2CC[C@H](CN3CC(Nc5ccc([C@@H]6c7ccc(O)cc7CC[C@@H]6c6ccccc6)cc5)C3)CC2)C4)C(=O)N1 (stereo partly drawn) [E 363, 2-(2,6-dioxopiperidin-3-yl)-6-((1R,4r)-4-((3-((4-((1R,2S)-6-hydroxy-2-phenyl-1,2,3,4-tetrahydronaphthalen-1-yl)phenyl)amino)azetidin-1-yl)methyl)cyclohexane-1-carbonyl)-6,7-dihydropyrrolo[3,4-f]isoindole-1,3(2H,5H)-dione]
10 to 100 nM | O=C1CCC(N2C(=O)c3cc4c(cc3C2=O)CN(C(=O)[C@H]2CC[C@@H](CN3CC(Nc5ccc([C@@H]6c7ccc(O)cc7CC[C@@H]6c6ccccc6)cc5)C3)CC2)C4)C(=O)N1 (stereo partly drawn) [E 364, 2-(2,6-dioxopiperidin-3-yl)-6-((1S,4s)-4-((3-((4-((1R,2S)-6-hydroxy-2-phenyl-1,2,3,4-tetrahydronaphthalen-1-yl)phenyl)amino)azetidin-1-yl)methyl)cyclohexane-1-carbonyl)-6,7-dihydropyrrolo[3,4-f]isoindole-1,3(2H,5H)-dione]
> 100 nM | O=C1CCC(N2C(=O)c3cc4c(cc3C2=O)CN(C(=O)C2CCC(CN3CCN(c5ccc([C@@H]6c7ccc(O)cc7CC[C@@H]6c6ccccc6)cc5)CC3)CC2)C4)C(=O)N1 (stereo partly drawn) [E 365, 2-(2,6-dioxopiperidin-3-yl)-6-(4-((4-(4-((1R,2S)-6-hydroxy-2-phenyl-1,2,3,4-tetrahydronaphthalen-1-yl)phenyl)piperazin-1-yl)methyl)cyclohexane-1-carbonyl)-6,7-dihydropyrrolo[3,4-f]isoindole-1,3(2H,5H)-dione]
> 100 nM | C[C@@H]1Cc2c([nH]c3ccccc23)[C@@H](c2c(F)cc(C3CCN(C[C@H]4CC[C@H](N5Cc6cc7c(cc6C5)C(=O)N(C5CCC(=O)NC5=O)C7=O)CC4)CC3)cc2F)N1CC(F)F (stereo partly drawn) [E 366, 6-((1R,4r)-4-((4-(4-((1R,3R)-2-(2,2-difluoroethyl)-3-methyl-2,3,4,9-tetrahydro-1H-pyrido[3,4-b]indol-1-yl)-3,5-difluorophenyl)piperidin-1-yl)methyl)cyclohexyl)-2-(2,6-dioxopiperidin-3-yl)-6,7-dihydropyrrolo[3,4-f]isoindole-1,3(2H,5H)-dione]
> 100 nM | C[C@@H]1Cc2c([nH]c3ccccc23)[C@@H](c2c(F)cc(C3CCN(C[C@H]4CC[C@@H](N5Cc6cc7c(cc6C5)C(=O)N(C5CCC(=O)NC5=O)C7=O)CC4)CC3)cc2F)N1CC(F)F (stereo partly drawn) [E 367, 6-((1S,4s)-4-((4-(4-((1R,3R)-2-(2,2-difluoroethyl)-3-methyl-2,3,4,9-tetrahydro-1H-pyrido[3,4-b]indol-1-yl)-3,5-difluorophenyl)piperidin-1-yl)methyl)cyclohexyl)-2-(2,6-dioxopiperidin-3-yl)-6,7-dihydropyrrolo[3,4-f]isoindole-1,3(2H,5H)-dione]
> 100 nM | C[C@@H]1Cc2c([nH]c3ccccc23)[C@@H](c2c(F)cc(C(=O)N3CCC4(CC3)CC(CN3Cc5cc6c(cc5C3)C(=O)N(C3CCC(=O)NC3=O)C6=O)C4)cc2F)N1CC(F)F (stereo partly drawn) [E 369, 6-((7-(4-((1R,3R)-2-(2,2-difluoroethyl)-3-methyl-2,3,4,9-tetrahydro-1H-pyrido[3,4-b]indol-1-yl)-3,5-difluorobenzoyl)-7-azaspiro[3.5]nonan-2-yl)methyl)-2-(2,6-dioxopiperidin-3-yl)-6,7-dihydropyrrolo[3,4-f]isoindole-1,3(2H,5H)-dione]
> 100 nM | C[C@@H]1Cc2c([nH]c3ccccc23)[C@@H](c2c(F)cc(CN3CCC4(CC3)CC(CN3Cc5cc6c(cc5C3)C(=O)N(C3CCC(=O)NC3=O)C6=O)C4)cc2F)N1CC(F)F (stereo partly drawn) [E 370, 6-((7-(4-((1R,3R)-2-(2,2-difluoroethyl)-3-methyl-2,3,4,9-tetrahydro-1H-pyrido[3,4-b]indol-1-yl)-3,5-difluorobenzyl)-7-azaspiro[3.5]nonan-2-yl)methyl)-2-(2,6-dioxopiperidin-3-yl)-6,7-dihydropyrrolo[3,4-f]isoindole-1,3(2H,5H)-dione]
> 100 nM | O=C1CCC(N2C(=O)c3cc4c(cc3C2=O)CN(Cc2ccc(N3CC(Nc5ccc([C@@H]6c7ccc(O)cc7CC[C@@H]6c6ccccc6)cc5)C3)nc2)C4)C(=O)N1 (stereo partly drawn) [E 373, 2-(2,6-dioxopiperidin-3-yl)-6-((6-(3-((4-((1R,2S)-6-hydroxy-2-phenyl-1,2,3,4-tetrahydronaphthalen-1-yl)phenyl)amino)azetidin-1-yl)pyridin-3-yl)methyl)-6,7-dihydropyrrolo[3,4-f]isoindole-1,3(2H,5H)-dione]
> 100 nM | O=C1CCC(N2C(=O)c3cc4c(cc3C2=O)CN(C[C@H]2CC[C@H](N3CC(Nc5ccc([C@@H]6c7ccc(O)cc7CC[C@@H]6c6ccccc6)cc5)C3)CC2)C4)C(=O)N1 (stereo partly drawn) [E 374, 2-(2,6-dioxopiperidin-3-yl)-6-(((1R,4r)-4-(3-((4-((1R,2S)-6-hydroxy-2-phenyl-1,2,3,4-tetrahydronaphthalen-1-yl)phenyl)amino)azetidin-1-yl)cyclohexyl)methyl)-6,7-dihydropyrrolo[3,4-f]isoindole-1,3(2H,5H)-dione]
> 100 nM | O=C1CCC(N2C(=O)c3cc4c(cc3C2=O)CN(C[C@H]2CC[C@@H](N3CC(Nc5ccc([C@@H]6c7ccc(O)cc7CC[C@@H]6c6ccccc6)cc5)C3)CC2)C4)C(=O)N1 (stereo partly drawn) [E 375, 2-(2,6-dioxopiperidin-3-yl)-6-(((1S,4s)-4-(3-((4-((1R,2S)-6-hydroxy-2-phenyl-1,2,3,4-tetrahydronaphthalen-1-yl)phenyl)amino)azetidin-1-yl)cyclohexyl)methyl)-6,7-dihydropyrrolo[3,4-f]isoindole-1,3(2H,5H)-dione]
> 100 nM | O=C1CCC(N2C(=O)c3cc4c(cc3C2=O)CN(CC(=O)N2CCC(C(=O)N3CC(Oc5ccc([C@@H]6c7ccc(O)cc7CC[C@@H]6c6ccccc6)cc5)C3)CC2)C4)C(=O)N1 (stereo partly drawn) [E 376, 2-(2,6-dioxopiperidin-3-yl)-6-(2-(4-(3-(4-((1R,2S)-6-hydroxy-2-phenyl-1,2,3,4-tetrahydronaphthalen-1-yl)phenoxy)azetidine-1-carbonyl)piperidin-1-yl)-2-oxoethyl)-6,7-dihydropyrrolo[3,4-f]isoindole-1,3(2H,5H)-dione]
10 to 100 nM | O=C1CCC(N2C(=O)c3cc4c(cc3C2=O)CN(CC(=O)N2CCC(N3CC(Oc5ccc([C@@H]6c7ccc(O)cc7CC[C@@H]6c6ccccc6)cc5)C3)CC2)C4)C(=O)N1 (stereo partly drawn) [E 377, 2-(2,6-dioxopiperidin-3-yl)-6-(2-(4-(3-(4-((1R,2S)-6-hydroxy-2-phenyl-1,2,3,4-tetrahydronaphthalen-1-yl)phenoxy)azetidin-1-yl)piperidin-1-yl)-2-oxoethyl)-6,7-dihydropyrrolo[3,4-f]isoindole-1,3(2H,5H)-dione]
> 100 nM | C[C@@H]1Cc2c([nH]c3ccccc23)[C@@H](c2c(F)cc(C(=O)N3CCC4(CCC(CN5Cc6cc7c(cc6C5)C(=O)N(C5CCC(=O)NC5=O)C7=O)CC4)CC3)cc2F)N1CC(F)F (stereo partly drawn) [E 378, 6-((3-(4-((1R,3R)-2-(2,2-difluoroethyl)-3-methyl-2,3,4,9-tetrahydro-1H-pyrido[3,4-b]indol-1-yl)-3,5-difluorobenzoyl)-3-azaspiro[5.5]undecan-9-yl)methyl)-2-(2,6-dioxopiperidin-3-yl)-6,7-dihydropyrrolo[3,4-f]isoindole-1,3(2H,5H)-dione]
